From ChEMBL document CHEMBL1201862, “PubChem BioAssay data set” (2004)
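Briefly, cells in 96-well plates were exposed to five compound concentrations for 48 h, and endpoints were estimated by linear interpolation. GI50: concentration for 50% inhibition of growth.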 The source made the active and inactive calls. Cut-off read from the data, not from the text of the source: active = GI50 up to about 1.1 µM and inactive = higher.

Assays:
Experiment in all cases: NCI anticancer screen, dose series, 48 h
HOP-62 = test system: HOP-62
Malme-3M = test system: Malme-3M
SK-MEL-28 = test system: SK-MEL-28
OVCAR-4 = test system: OVCAR-4
MDA-MB-231 = test system: MDA-MB-231
CAKI-1 = test system: CAKI-1
UACC-257 = test system: UACC-257
EKVX = test system: EKVX
CCRF-CEM = test system: CCRF-CEM
UACC-62 = test system: UACC-62
BT-549 = test system: BT-549
A549 = test system: A549
SNB-75 = test system: SNB-75
MCF7 = test system: MCF7
OVCAR-3 = test system: OVCAR-3
SK-OV-3 = test system: SK-OV-3
ACHN = test system: ACHN
HCT-15 = test system: HCT-15
SK-MEL-2 = test system: SK-MEL-2
RPMI-8226 = test system: RPMI-8226

| SMILES | GI50 (HOP-62) | GI50 (Malme-3M) | GI50 (SK-MEL-28) | GI50 (OVCAR-4) | GI50 (MDA-MB-231) | GI50 (CAKI-1) | GI50 (UACC-257) | GI50 (EKVX) | GI50 (CCRF-CEM) | GI50 (UACC-62) | GI50 (BT-549) | GI50 (A549) | GI50 (SNB-75) | GI50 (MCF7) | GI50 (OVCAR-3) | GI50 (SK-OV-3) | GI50 (ACHN) | GI50 (HCT-15) [µM] | GI50 (SK-MEL-2) | GI50 (RPMI-8226) |
| --- | --- | --- | --- | --- | --- | --- | --- | --- | --- | --- | --- | --- | --- | --- | --- | --- | --- | --- | --- | --- |
| CCC(CCCN)Nc1cc(OC)cc2cccnc12 (stereo not given) | > 100 µM (inactive) | 38.7 µM (inactive) | > 100 µM (inactive) | 90.2 µM (inactive) | 53.5 µM (inactive) | > 100 µM (inactive) | 15.5 µM (inactive) | > 100 µM (inactive) | 48.9 µM (inactive) | 46.3 µM (inactive) | > 100 µM (inactive) | > 100 µM (inactive) | 31.1 µM (inactive) | 29.4 µM (inactive) | 40.4 µM (inactive) | > 100 µM (inactive) | > 100 µM (inactive) | > 100 | > 100 µM (inactive) |  |
| CC(C)C(NC(=O)Oc1ccccc1)C(=O)NC1c2c(Br)sc(Br)c2C(=O)C1O (stereo not given) |  | 6.38 µM (inactive) | 4.93 µM (inactive) | 2.94 µM (inactive) | 5.11 µM (inactive) | 6.81 µM (inactive) | 4.72 µM (inactive) | 6.4 µM (inactive) | 7.62 µM (inactive) | 4.02 µM (inactive) | 3.67 µM (inactive) | > 25 µM (inactive) | > 25 µM (inactive) | > 25 µM (inactive) | 4.14 µM (inactive) | > 25 µM (inactive) | 5.56 µM (inactive) | 4.25 | 7.33 µM (inactive) |  |
| Cc1[nH]c2[nH]c(=S)nc(NC(N)=S)c2c1Cc1ccccc1 | 47 µM (inactive) |  | 21.9 µM (inactive) |  | 28.1 µM (inactive) | 98.6 µM (inactive) | 54.3 µM (inactive) | 48.4 µM (inactive) | 21.9 µM (inactive) | 29.9 µM (inactive) | 14.3 µM (inactive) | 75.5 µM (inactive) | 31.9 µM (inactive) | 38.1 µM (inactive) | 28 µM (inactive) | 76 µM (inactive) | > 100 µM (inactive) | 58.6 | 93.1 µM (inactive) | 12.7 µM (inactive) |
| NC(=O)C(=CNC(=S)c1ccncc1)C(N)=O | > 100 µM (inactive) |  |  | > 100 µM (inactive) | > 100 µM (inactive) | > 100 µM (inactive) | > 100 µM (inactive) | > 100 µM (inactive) | > 100 µM (inactive) | > 100 µM (inactive) | > 100 µM (inactive) | > 100 µM (inactive) |  | > 100 µM (inactive) | > 100 µM (inactive) | > 100 µM (inactive) | > 100 µM (inactive) | > 100 | > 100 µM (inactive) | > 100 µM (inactive) |
| Cc1cc2nc(N3C(=O)/C(=C/c4ccc(Cl)cc4)N=C3c3ccccc3)sc2cc1C | 28.9 µM (inactive) |  | 55.7 µM (inactive) | 20 µM (inactive) | 50 µM (inactive) | 26.4 µM (inactive) | 28.4 µM (inactive) | 24.4 µM (inactive) | 18.1 µM (inactive) | 30.8 µM (inactive) | 26.4 µM (inactive) | 30 µM (inactive) | 22.3 µM (inactive) | 23.4 µM (inactive) | 15.7 µM (inactive) | 46.2 µM (inactive) | 37.7 µM (inactive) | 29.1 | 26.5 µM (inactive) | 35.9 µM (inactive) |
| Nc1nc(N)c2cc(CNc3ccc(C(=O)NC(CC(=O)O)C(=O)O)c(Cl)c3)ccc2n1 (stereo not given) |  | 0.383 µM (active) | 0.288 µM (active) | 153 µM (inactive) | 337 µM (inactive) | 0.0877 µM (active) | 0.259 µM (active) |  | 0.0342 µM (active) | 0.0893 µM (active) | 25.8 µM (inactive) | 0.0346 µM (active) | > 20.8 µM (inactive) | 0.0507 µM (active) | 0.8 µM (active) | 6.82 µM (inactive) | 0.0253 µM (active) | 0.0203 | 15 µM (inactive) |  |
| O=C(c1ccc(Cl)c(Cl)c1)N(C(=S)OC12CC3CC(CC(C3)C1)C2)c1ccccc1 | 44.6 µM (inactive) | 34.9 µM (inactive) | 44.6 µM (inactive) | 38.2 µM (inactive) | 38.3 µM (inactive) | 29.9 µM (inactive) | 41.2 µM (inactive) | 20.8 µM (inactive) | 2.8 µM (inactive) | 25.1 µM (inactive) | 36 µM (inactive) | 32.2 µM (inactive) | 93.1 µM (inactive) | 28 µM (inactive) | 39.4 µM (inactive) | 36.6 µM (inactive) | 34.8 µM (inactive) | 33.3 | 20 µM (inactive) |  |
| COc1cc(NS(C)(=O)=O)ccc1Nc1cc(C)nc2ccc3[nH]ccc3c12 | > 100 µM (inactive) |  | > 100 µM (inactive) | > 100 µM (inactive) | > 100 µM (inactive) | > 100 µM (inactive) | > 100 µM (inactive) | > 100 µM (inactive) |  | > 100 µM (inactive) | > 100 µM (inactive) | > 100 µM (inactive) |  | > 100 µM (inactive) | > 100 µM (inactive) |  | > 100 µM (inactive) | > 100 | > 100 µM (inactive) | > 100 µM (inactive) |
| CCCCCCCCCCCCCC[C@@H](O)[C@H]1CC[C@H]([C@H]2CC[C@H]([C@H](O)CCCCCC[C@@H](O)CC3=C[C@H](C)OC3=O)O2)O1 | > 25 µM (inactive) | > 25 µM (inactive) | > 25 µM (inactive) | > 25 µM (inactive) | > 25 µM (inactive) | > 25 µM (inactive) | 3.65 µM (inactive) | > 7.52 µM (inactive) | > 25 µM (inactive) | 1.54 µM (inactive) | > 25 µM (inactive) | > 25 µM (inactive) | > 25 µM (inactive) | > 15.3 µM (inactive) | > 25 µM (inactive) | > 25 µM (inactive) | > 25 µM (inactive) | > 25 | > 25 µM (inactive) |  |
| COP(=O)(OC)C(NC=O)P(=O)(OC)OC | > 100 µM (inactive) | > 100 µM (inactive) | > 100 µM (inactive) | > 100 µM (inactive) | > 100 µM (inactive) | > 100 µM (inactive) |  | > 100 µM (inactive) | > 100 µM (inactive) | > 100 µM (inactive) | > 100 µM (inactive) | > 100 µM (inactive) |  | > 100 µM (inactive) | > 100 µM (inactive) | > 100 µM (inactive) | > 100 µM (inactive) | > 100 |  | > 100 µM (inactive) |
| Cc1ccc(C(=O)N/N=C(\N=N\c2ccccc2[N+](=O)[O-])c2ccc(N(C)C)cc2)cc1 |  |  | > 100 µM (inactive) | > 100 µM (inactive) | > 100 µM (inactive) | > 100 µM (inactive) | > 100 µM (inactive) | > 100 µM (inactive) | > 100 µM (inactive) | 17.4 µM (inactive) | > 100 µM (inactive) | > 100 µM (inactive) |  | > 100 µM (inactive) | 92 µM (inactive) | > 100 µM (inactive) | > 100 µM (inactive) | 92.5 | > 100 µM (inactive) | > 100 µM (inactive) |
| COC(=O)c1nc2n(n1)-c1ccccc1C(=O)N(Cc1ccccc1)C2 | > 100 µM (inactive) | > 100 µM (inactive) | > 100 µM (inactive) | > 100 µM (inactive) | > 100 µM (inactive) | > 100 µM (inactive) | > 100 µM (inactive) | > 100 µM (inactive) | > 100 µM (inactive) | > 100 µM (inactive) | > 100 µM (inactive) | > 100 µM (inactive) |  | > 100 µM (inactive) | > 100 µM (inactive) | > 100 µM (inactive) | > 100 µM (inactive) | > 100 | > 100 µM (inactive) | > 100 µM (inactive) |
| COc1cc2c(cc1OCCCCOc1cc3nc(C)nc(Cl)c3cc1OC)N=C[C@@H]1CCCN1C2=O | 2.67 µM (inactive) | 1.79 µM (inactive) | 2.34 µM (inactive) | 2.84 µM (inactive) | 1.25 µM (inactive) | 2.38 µM (inactive) | 2.29 µM (inactive) | 4.73 µM (inactive) |  | 1.48 µM (inactive) | 2.17 µM (inactive) | 2.79 µM (inactive) | 1.46 µM (inactive) | 3.03 µM (inactive) | 2.06 µM (inactive) | 30.4 µM (inactive) | 1.94 µM (inactive) | 1.43 | 1.95 µM (inactive) |  |
| O=C(c1ccccc1)c1ccc(N2C(=O)/C(=C/c3cccc([N+](=O)[O-])c3)N=C2c2ccccc2)c(N2C(=O)/C(=C/c3cccc([N+](=O)[O-])c3)N=C2c2ccccc2)c1 | 75.3 µM (inactive) |  | 78.3 µM (inactive) | 34.6 µM (inactive) | > 100 µM (inactive) | 49.8 µM (inactive) | 36.2 µM (inactive) | > 100 µM (inactive) |  | 20.8 µM (inactive) | 35.5 µM (inactive) | 11 µM (inactive) | 15.1 µM (inactive) | 26.7 µM (inactive) | 30 µM (inactive) | > 100 µM (inactive) | 53.2 µM (inactive) | 16.5 | 26.4 µM (inactive) | 12.8 µM (inactive) |
| CCOP(=O)(/C=C/n1cc(C)c(=O)[nH]c1=O)OCC | > 100 µM (inactive) |  | > 100 µM (inactive) | > 100 µM (inactive) | > 100 µM (inactive) | > 100 µM (inactive) | > 100 µM (inactive) | > 100 µM (inactive) | > 100 µM (inactive) | > 100 µM (inactive) | > 100 µM (inactive) | > 100 µM (inactive) | > 100 µM (inactive) | > 100 µM (inactive) | > 100 µM (inactive) | > 100 µM (inactive) | > 100 µM (inactive) | > 100 | > 100 µM (inactive) | > 100 µM (inactive) |
